According to US20080279932A1, “Compounds” (priority 2005, published 2008):
Marks after values point to notes of the source that are not given here.

How the values were obtained:
[1] = cited from earlier work; for Dissociation Constant (pKa's), first value: first pKa of the salt-forming acid (counter-ion); for Dissociation Constant (pKa's), second value: second pKa of the salt-forming acid (counter-ion)
Racemization study = format: physicochemical
From the text: The free base in water chemically degraded and detection of racemization was not possible.

[2] = Stability of bulk material with excipients for 2 weeks at 50 C and 50 C/75% r.h. (HPLC assay); format: physicochemical; details: for HPLC Assay Results (External Standard): in % (unit assumed); for stability compared with the free base of vildagliptin: bulk and excipient mixtures, 2 weeks
Experimental: Stability of Bulk Material with Excipients for 2 week at 50 C and 50 C/75% r.h.
Procedure for Dry Mixtures: 25 mg of free base drug substance was weighed into sample tube and approximately 2.5 grams of mixture A, or 25 mg of Lactose was added to the tube. Weight adjustments were made for each salt.
(§1) One sample preparation per condition and one injection per sample.
Controls: A control of the drug substance with the excipients will be prepared and analyzed as a time zero data point and to test the efficiency of extracting the drug substance from the excipients.
Mixture A: (oral) mannitol/Avicel PH 102/Cutina HR 57:38:5 (m/m/m)

[3] = Forced decomposition (HPLC assay, 3 days); format: physicochemical; details: for HPLC Assay Results (External Standard): in % (unit assumed)
Experimental: Procedure: Weigh 25 mg drug substance to a test tube and add 5 ml of appropriate solution.
as §1
Dilute sample to 1 mg/mL with water for HPLC analysis.
All salt forms were tested in bulk and water.
If the newer gradient method is selected then the order of elution of the acid degradation product and the amide degradation product are reversed, with the acid degradation product eluting first about 1.8 minutes and the amide degradation product eluting second about 2.5 minutes. Only the extended stability (3 month) samples were analyzed with the gradient HPLC method.

[4] = Dissociation constant (pKa's) of LAF237 free base and salt-forming acids; format: physicochemical; details: LAF237 free base
[5] = 1% in mixture A Dry Granulated, 2 weeks at 50/75% r.h.
[6] = 1% in mixture A Dry Granulated, 2 weeks at 50° C.
[7] = 1% in mixture A Dry Granulated, t0
[8] = 50% in Lactose Dry Granulated, 2 weeks at 50/75% r.h.
[9] = 50% in Lactose Dry Granulated, 2 weeks at 50° C.
[10] = 50% in Lactose Dry Granulated, t0

Row | HPLC Assay Results (External Standard) [2, 5] | HPLC Assay Results (External Standard) [2, 6] | HPLC Assay Results (External Standard) [2, 7] | HPLC Assay Results (External Standard) [2, 8] | HPLC Assay Results (External Standard) [2, 9] | HPLC Assay Results (External Standard) [2, 10] | HPLC Assay Results (External Standard) ([2]; Bulk, 2 weeks at 50/75% r.h.) | HPLC Assay Results (External Standard) ([2]; Bulk, 2 weeks at 50° C.) | HPLC Assay Results (External Standard) ([2]; Bulk, t0) | HPLC Assay Results (External Standard) ([3]; Bulk, 80° C. (3-day)) | HPLC Assay Results (External Standard) ([3]; Bulk, ambient (3-day)) | HPLC Assay Results (External Standard) ([3]; H2O, 80° C. (3-day)) | HPLC Assay Results (External Standard) ([3]; H2O, ambient (3-day)) | Molecule | Dissociation Constant (pKa's), first value [1] | Dissociation Constant (pKa's), second value [1] | racemization (Racemization study; drug in the solid state) | stability compared with the free base of vildagliptin [2] | stability in water ([3]; water at 80° C. after 3 days) | further results
1 | – | – | – | – | – | – | – | – | – | – | – | – | – | tartarate | 2.98 | 4.34 | – | – | – | –
2 | 83.8* | 94.2* | 98.1* | 96.5 | 98.9 | 100.7 | 98.7 | 98.6 | 100.0 | 100.3 | 99.9 | 7.5 | 98.4 | N#C[C@@H]1CCCN1C(=O)CNC12CC3CC(CC(O)(C3)C1)C2 [Free Base, (S)-1-[(3-hydroxy-1-adamantyl)amino]acetyl-2-cyano-pyrrolidine, reference compound] | – | – | no sign of racemization | – | – | % loss in assay value ([2]; in the presence of mixture A): large losses; stability in water ([3]; free base in water, after 3 days): complete degradation; LAF237 remaining ([3]; peroxide sample, after three days): 3%; stability under acidic conditions ([3]; room temperature): good stability; pKa [4]: 7.86
3 | 96.0 | 94.6 | 96.1 | 98.2 | 98.9 | 99.5 | 98.9 | 99.0 | 104.0 | 98.8 | 102.2 | 98.9 | 101.9 | Hydrogen Fumarate Salt of Vildagliptin [Example 4] | 3.03 | 4.47 | – | better stability | remain stable | –

Row | Molecule | HPLC Assay Results (External Standard) [2, 5] | HPLC Assay Results (External Standard) [2, 6] | HPLC Assay Results (External Standard) [2, 7] | HPLC Assay Results (External Standard) [2, 8] | HPLC Assay Results (External Standard) [2, 9] | HPLC Assay Results (External Standard) [2, 10] | HPLC Assay Results (External Standard) ([2]; Bulk, 2 weeks at 50/75% r.h.) | HPLC Assay Results (External Standard) ([2]; Bulk, 2 weeks at 50° C.) | HPLC Assay Results (External Standard) ([2]; Bulk, t0) | HPLC Assay Results (External Standard) ([3]; Bulk, 80° C. (3-day)) | HPLC Assay Results (External Standard) ([3]; Bulk, ambient (3-day)) | HPLC Assay Results (External Standard) ([3]; H2O, 80° C. (3-day)) | HPLC Assay Results (External Standard) ([3]; H2O, ambient (3-day)) | Dissociation Constant (pKa's), first value [1] | Dissociation Constant (pKa's), second value [1] | racemization (Racemization study; drug in the solid state) | stability compared with the free base of vildagliptin [2] | stability in water ([3]; water at 80° C. after 3 days) | further results
4 | Hydrochloride Salt of Vildagliptin [Example 1] | 95.5 | 96.6 | 97.3 | 98.7 | 99.7 | 100.8 | 99.6 | 100.5 | 100.7 | 98.8 | 98.8 | 95.3 | 99.9 | – | – | no sign of racemization | better stability | remain stable | racemization (Racemization study; in solution in water, 80° C.): no sign of racemization; racemization (Racemization study; in solution in water, ambient): no sign of racemization
